Tested on: cannabis calli
Test: Elicitation of callus cultures on solid medium, cannabinoid content by HPLC
Assay type: cell-based, Cannabis sativa
Conditions: elicitors compared for inducing secondary metabolites

Structure (SMILES) | cannabinoid production (elicitor effect)
O=P(O)(O)CCCl [ethephon] | positive results
N[C@@H](Cc1ccccc1)C(=O)O [phenylalanine] | positive results
O=C(O)c1ccccc1O [salicylic acid] | positive results
NCCCC(=O)O [GABA] | positive results
CCCCCC(=O)O [hexanoic acid] | positive results
CC/C=C\CC1C(=O)CCC1CC(=O)OC (stereo not shown) [methyl jasmonate] | positive results
N[C@@H](Cc1ccc(O)cc1)C(=O)O [tyrosine] | positive results
